Reference: patent US20100003217A1, “Compounds and Pharmaceutical Compositions for the Treatment of Viral Infections” (priority 2008, published 2010)
Like-named read-outs stand apart in the source and are kept apart here. One block for each molecule: values may come before it.

Tests used:
[1] = Stability in human liver microsomes; assay type: in vitro ADME; conditions: for % Residual compound following incubation with liver microsomes: human microsomes 1 mg/mL; for % Residual Compound 2: human liver microsomes 1 mg/mL, 15 min, 10 μM
Experimental: (§1) Disappearance of parent Compound 1 was used to evaluate the in vitro metabolism thereof. Relative levels of unchanged Compound 1 were measured by HPLC-UV method 1. Residual Compound 1 is reported as percent difference from time zero or control. The HPLC-UV system was as follows:
Incubations with liver microsomes or cytosol were conducted in a final volume of 0.1 mL per incubation time point. […] The microsomal reaction was initiated by the addition of NADPH (3 mM final concentration). Incubations with (a) no protein or (b) no NADPH served as controls. Reactions were terminated by the addition of 0.2 mL of stop solution (acetonitrile). The samples were vortex-mixed for 30 sec and then centrifuged at 10,000×g for 10 min. The supernatant was dried using a Labconco CentriVap concentrator and the dry residue reconstituted in water, transferred to an HPLC glass vial and analyzed by HPLC-UV method 1 (described above).
(§2) Metabolic stability of the proposed metabolites was conducted by incubating the chemically synthesized standards Compound 2, Compound 4 and Compound 3 as described above for Compound 1. When possible, formation of Compound 5 was verified by incubating samples with alkaline phosphatase (10 U) for 60 min at 37° C.

[2] = Stability in monkey liver microsomes; assay type: in vitro ADME; conditions: for % Residual compound following incubation with liver microsomes: monkey microsomes 1 mg/mL; for % Residual Compound 2: monkey liver microsomes 1 mg/mL, 15 min, 10 μM
Experimental: as §1
Incubations with liver microsomes or cytosol were conducted in a final volume of 0.1 mL per incubation time point. […] DMSO (final DMSO concentration was 0.1%) was incubated at 37° C. from 0-60 min with pooled microsomal protein (1.0 mg/mL), suspended in incubation buffer (0.1 M potassium phosphate, pH 7.4, 5 mM MgCl2, and 0.1 mM EDTA). The microsomal reaction was initiated by the addition of NADPH (3 mM final concentration). Incubations with (a) no protein or (b) no NADPH served as controls. Reactions were terminated by the addition of 0.2 mL of stop solution (acetonitrile). The samples were vortex-mixed for 30 sec and then centrifuged at 10,000×g for 10 min. The supernatant was dried using a Labconco CentriVap concentrator and the dry residue reconstituted in water, transferred to an HPLC glass vial and analyzed by HPLC-UV method 1 (described above).
as §2

[3] = Metabolite profile in rat liver; assay type: in vivo, male Sprague-Dawley rats; conditions: for Percent of Dose, Liver 24 h: after [14C]Compound 1; for concentration at 2 h / concentration at 6 h / concentration at 24 h: male, Sprague-Dawley, rat, liver
Experimental: Homogenates were prepared on dry ice in 70% methanol-30% water containing 20 mM EDTA and 20 mM EGTA (about 1× (w/v) weight of the liver) and were stored frozen. Pooled liver samples were prepared for all groups by combining a fixed percentage of the total weight of each individual animal sample homogenate for each group. Each pooled liver homogenate (3.77-5.02 g) was placed in a 50-mL polypropylene centrifuge tube and 16.0 mL of methanol:water (70:30) was added. The sample was vortexed for one minute, and then centrifuged at 11200×g for 20 minutes. The supernatant was transferred to a tube and total volume was measured. The extraction procedure was repeated three additional times. Radioactivity of each supernatant was determined by LSC of duplicate aliquots (100 μL each) for extraction recovery. Subsamples of all four extracts from each sample were taken for proportionate pooling. For Group 1, the subsamples were pooled before concentration and, for Group 2, each subsample was concentrated separately and then pooled due to the larger volumes involved. Each extract was completely dried or reduced to approximately 100 μL. Reconstitution was accomplished with methanol (20 μL) and sufficient volume of the aqueous mobile phase of HPLC method 2 such that the total volume of each reconstituted sample was 500 μL. Duplicate aliquots of the reconstituted samples were analyzed by LSC. Each sample was analyzed by HPLC method 2.
Percent of the administered dose (% AD) for parent drug and each metabolite at each collection period=(% of the total radioactivity in the sample attributed to the metabolite)*(total radioactivity expressed as % of the administered dose, recovered during the corresponding collection period).
Microgram equivalents/g for parent drug or metabolite at each collection period (% radioactivity for each metabolite)*(total μg equivalents/g during the corresponding collection period).
Liver homogenates were pooled for each time point for both dose groups by proportional mixing according to the weight of the samples from individual animals. The pooled samples were extracted and prepared for HPLC analysis as described above. The abundance of metabolites was determined as a % of the administered dose and as μg equivalent/g. The data are presented in Table 54, Table 55, Table 56 and Table 57, respectively. Metabolites R^1, R^8 and R^9 were characterized based on retention time.

[4] = group 1 (IV dose) pooled liver, 2 h
[5] = group 1 (IV dose) pooled liver, 2 h (Table 56)
[6] = group 1 (IV dose) pooled liver, 6 h
[7] = group 1 (IV dose) pooled liver, 6 h (Table 56)
[8] = group 1 (IV dose) pooled liver, 24 h
[9] = group 2 (PO dose) pooled liver, 2 h
[10] = group 2 (PO dose) pooled liver, 6 h
[11] = group 2 (PO dose) pooled liver, 24 h
[12] = iv, 50 mg/kg, group 1 (IV dose) pooled liver, 2 h, read-out: liver concentration as μg equivalents/g
[13] = iv, 50 mg/kg, group 1 (IV dose) pooled liver, 6 h, read-out: liver concentration as μg equivalents/g
[14] = rat liver, IV dose, 2 h (Group 1A)
[15] = rat liver, IV dose, 6 h (Group 1B)

NADPH-dependent metabolism ([1]; human liver microsomes, 60 min, 50 μM): 20-30% | % Residual compound following incubation with liver microsomes ([1]; 60 min, 50 μM, NADPH): 82% | % Residual compound following incubation with liver microsomes ([1]; 60 min, 50 μM, No Cofactor): 103% | NADPH-dependent metabolism ([2]; monkey liver microsomes, 60 min, 50 μM): 20-30% | % Residual compound following incubation with liver microsomes ([2]; 60 min, 50 μM, NADPH): 76% | % Residual compound following incubation with liver microsomes ([2]; 60 min, 50 μM, No Cofactor): 89%
SMILES: CC(C)(CO)C(=O)SCCOP(N)(=O)OC[C@H]1O[C@@H](n2cnc3c(=O)[nH]c(N)nc32)[C@](C)(O)[C@@H]1O (mixture of isomers) [Compound 3, {9-[(2R)2-C-methyl-β-D-ribo-furanosyl]-guanin}-5′-yl-O-(hydroxy-tert-butyl-S-acyl-2-thioethyl) phosphoramidate]

% Residual Compound 2 ([1]; NADPH): 0% | % Residual Compound 2 ([1]; No Cofactor): 0% | % Residual Compound 2 ([2]; NADPH): 19% | % Residual Compound 2 ([2]; No Cofactor): 0%
SMILES: C[C@@]1(O)[C@H](O)[C@@H](COP(=O)(O)NCc2ccccc2)O[C@H]1n1cnc2c(=O)[nH]c(N)nc21 [Compound 2, [(2R)-2-methyl-β-D-ribofuranosyl]guanine-N-benzylaminyl-5′-monophosphate]

Percent of Dose, Liver 24 h ([3]; IV): 0.29% of Dose | Percent of Dose, Liver 24 h ([3]; Oral): 0.08% of Dose | % AD [3, 4]: 3.35 % AD | % HPLC (percent of HPLC peak area in the sample extract) [3, 4]: 21.6% | % HPLC (percent of HPLC peak area in the sample extract) [3, 5]: 21.6% | % AD [3, 6]: 2.04 % AD | % HPLC (percent of HPLC peak area in the sample extract) [3, 6]: 20.1% | % HPLC (percent of HPLC peak area in the sample extract) [3, 7]: 20.1% | % AD [3, 8]: 0.29 % AD | % HPLC (percent of HPLC peak area in the sample extract) [3, 8]: 16.2% | % HPLC (percent of HPLC peak area in the sample extract) ([3]; group 1 (IV dose) pooled liver, 24 h (Table 56)): 16.2% | % AD [3, 9]: 0.04 % AD | % HPLC (percent of HPLC peak area in the sample extract) [3, 9]: 22.6% | % HPLC (percent of HPLC peak area in the sample extract) ([3]; group 2 (PO dose) pooled liver, 2 h (Table 57)): 22.6% | % AD [3, 10]: 0.06 % AD | % HPLC (percent of HPLC peak area in the sample extract) [3, 10]: 15.0% | % HPLC (percent of HPLC peak area in the sample extract) ([3]; group 2 (PO dose) pooled liver, 6 h (Table 57)): 15.0% | % AD [3, 11]: 0.08 % AD | % HPLC (percent of HPLC peak area in the sample extract) [3, 11]: 46.1% | % HPLC (percent of HPLC peak area in the sample extract) ([3]; group 2 (PO dose) pooled liver, 24 h (Table 57)): 46.1% | concentration at 2 h [3, 12]: 44400 ng/g | concentration at 6 h [3, 13]: 27500 ng/g | concentration at 24 h ([3]; iv, 50 mg/kg, group 1 (IV dose) pooled liver, 24 h, read-out: liver concentration as μg equivalents/g): 3770 ng/g | concentration at 2 h ([3]; po, 100 mg/kg, group 2 (PO dose) pooled liver, 2 h, read-out: liver concentration as μg equivalents/g): 1150 ng/g | concentration at 6 h ([3]; po, 100 mg/kg, group 2 (PO dose) pooled liver, 6 h, read-out: liver concentration as μg equivalents/g): 1550 ng/g | concentration at 24 h ([3]; po, 100 mg/kg, group 2 (PO dose) pooled liver, 24 h, read-out: liver concentration as μg equivalents/g): 1880 ng/g | concentration at 2 h ([3]; po, 100 mg/kg, rat liver, PO dose, 2 h, read-out: liver metabolite concentration): 1100 ng/g | concentration at 6 h ([3]; po, 100 mg/kg, rat liver, PO dose, 6 h, read-out: liver metabolite concentration): 1600 ng/g | concentration at 24 h ([3]; po, 100 mg/kg, rat liver, PO dose, 24 h, read-out: liver metabolite concentration): 1900 ng/g | % of the total radioactivity in liver ([3]; rat liver, IV dose, 2, 6 and 24 h): 16-22% | liver metabolite, % of the administered dose [3, 14]: 3.4 % AD | liver metabolite, % of the administered dose [3, 15]: 2.0 % AD | liver metabolite, % of the administered dose ([3]; rat liver, IV dose, 24 h): 0.29 % AD | liver metabolite, % of the administered dose ([3]; rat liver, IV dose, 24 h, listed as diphosphate): 0.3 % AD | % of the total radioactivity in liver ([3]; rat liver, PO dose, 2, 6 and 24 h): 15-46% | liver metabolite, % of the administered dose ([3]; rat liver, PO dose, 2 h): 0.04 % AD | liver metabolite, % of the administered dose ([3]; rat liver, PO dose, 6 h): 0.06 % AD | liver metabolite, % of the administered dose ([3]; rat liver, PO dose, 24 h): 0.08 % AD
SMILES: C[C@@]1(O)[C@H](O)[C@@H](COP(=O)(O)OP(=O)(O)O)O[C@H]1n1cnc2c(=O)[nH]c(N)nc21 [Compound 6, [(2R)-2-methyl-β-D-ribofuranosyl]guanine 5′-diphosphate]

% AD [3, 4]: 0.05 % AD | % HPLC (percent of HPLC peak area in the sample extract) [3, 4]: 0.29% | % HPLC (percent of HPLC peak area in the sample extract) [3, 5]: 0.29% | % AD [3, 6]: 0.04 % AD | % HPLC (percent of HPLC peak area in the sample extract) [3, 6]: 0.35% | % HPLC (percent of HPLC peak area in the sample extract) [3, 7]: 0.35% | concentration at 2 h [3, 12]: 600 ng/g | concentration at 6 h [3, 13]: 480 ng/g | concentration at 2 h ([3]; iv, 50 mg/kg, rat liver, IV dose, 2 h (Group 1A), read-out: liver metabolite concentration): 600 ng/g | concentration at 6 h ([3]; iv, 50 mg/kg, rat liver, IV dose, 6 h (Group 1B), read-out: liver metabolite concentration): 480 ng/g | liver metabolite, % of the administered dose [3, 14]: 0.05 % AD | liver metabolite, % of the administered dose [3, 15]: 0.04 % AD
SMILES: C[C@@]1(O)[C@H](O)[C@@H](COP(=O)(O)OP(=O)(O)OP(=O)(O)O)O[C@H]1n1cnc2c(=O)[nH]c(N)nc21 [Compound 7, [(2R)-2-methyl-β-D-ribofuranosyl]guanine 5′-triphosphate]
